The target of data set [1] is T1, Enoyl-[acyl-carrier-protein] reductase [NADH] (Mycobacterium tuberculosis) (UniProt P9WGR1).
T1 sequence (whole entry): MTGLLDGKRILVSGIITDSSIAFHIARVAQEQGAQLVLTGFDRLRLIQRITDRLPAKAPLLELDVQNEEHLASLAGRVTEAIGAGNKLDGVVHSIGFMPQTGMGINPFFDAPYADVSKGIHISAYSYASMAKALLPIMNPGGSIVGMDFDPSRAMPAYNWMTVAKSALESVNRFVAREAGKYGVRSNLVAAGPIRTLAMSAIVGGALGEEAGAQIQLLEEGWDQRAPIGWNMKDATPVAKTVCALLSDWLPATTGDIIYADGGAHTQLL
The data set is described as follows: Inhibition of Mycobacterium tuberculosis InhA using octenoyl-CoA as substrate assessed as decrease in NADH consumption at 40 uM measured for 10 mins relative to control.

Data set [2] in a line: Cytotoxicity against human kidney cells. It counts as cell-based.
The nature of data set [3]: Cytotoxicity against human lung cells. The format is cell-based.
Data set [4] is described as follows: Cytotoxicity against mouse embryonic stem cells. To be noted: embryonic stem cell. It counts as cell-based.

What is called inhibition is the change of the read-out against control, counted positive when it falls.

SMILES strings stand for the structures.

`O=C(Cc1ccccc1F)NCCc1cccc(Cl)c1`: the inhibition in data set [1] was found to be 84%.

As for `O=C(CCCc1c[nH]c2ccccc12)NCc1ccc2c(c1)OCO2`, the inhibition in data set [1] was 37%.

As for `O=C(Cc1ccccc1F)NCCO`, the inhibition in data set [1] came to 34%.

`COc1ccc(-c2cnn(-c3nccc(C(F)(F)F)n3)c2)cc1`: the inhibition in data set [1] is 4%.

With `O=C(Cc1ccccc1F)NCCC(c1ccccc1)c1ccccc1`, in data set [1], the inhibition was 63%.

For `O=C(Cc1ccccc1F)NCCc1c[nH]c2ccccc12`, in data set [1], the inhibition came to 47%.

On to `CS(=O)(=O)c1ccc(-c2cnn(-c3nccc(C(F)(F)F)n3)c2)c([N+](=O)[O-])c1`, for which the inhibition in data set [1] worked out at 10%.

Consider `O=C(c1ccc(-c2ccccc2)cc1)N1CCc2ccccc2C1`, for which the inhibition in data set [1] turned out to be 27%.

As to `FC(F)(F)c1ccnc(-n2cc(-c3ccnc4ccccc34)cn2)n1`, in data set [1], the inhibition was 9%.

In the case of `O=C(Cc1ccccc1F)NCc1cccc(Cl)c1`, in data set [1], the inhibition came out at 75%.

Take `O=C(c1ccc2[nH]ccc2c1)N1CCN(Cc2ccc3c(c2)OCO3)CC1`: the inhibition in data set [1] amounted to 51%.

In the case of `CN(CCc1ccccc1)C(=O)c1ccc(-c2ccccc2)cc1`, the inhibition in data set [1] was 32%.

Turning to `O=C(Cc1ccccc1F)NCCc1ccccc1`, the inhibition in data set [1] came out at 45%.

Regarding `CC1CN(C(=O)c2ccc3[nH]ccc3c2)CC(C)O1` (stereo unspecified), in data set [1], the inhibition is 47%.

Regarding `O=C(c1ccc2[nH]ccc2c1)N1CCN(C2c3ccccc3-c3ccccc32)CC1`, the Activity fell in the range of 35 to 44 µM in data set [2], 24 to 48 µM in data set [3] and 46 to 52 µM in data set [4].

`O=C(c1ccc(-c2ccccc2)cc1)N1CCN(Cc2ccccc2)CC1`: the inhibition in data set [1] turned out to be 27%.

Consider `COc1ccc(CCNC(=O)Cc2ccccc2F)cc1`, for which the inhibition in data set [1] stood at 63%.

For the molecule `O=C(c1ccc2[nH]ccc2c1)N1CCN(c2ccccn2)CC1`, the inhibition in data set [1] was 36%.

Regarding `O=C(Nc1ccc2ccccc2n1)c1ccc2[nH]ccc2c1`, the inhibition in data set [1] is 16%.

As for `FC(F)(F)c1ccnc(-n2cc(-c3ccc4ccccc4n3)cn2)n1`, the inhibition in data set [1] is 16%.

Turning to `FC(F)(F)c1ccnc(-n2cc(-c3ccncn3)cn2)n1`, in data set [1], the inhibition turned out to be 36%.

As for `O=C(c1ccc2[nH]ccc2c1)N1CCN(C(c2ccccc2)c2ccccc2)CC1`, the inhibition in data set [1] worked out at 106%.

Take `CC(C)=CCC/C(C)=C/CNC(=O)CCc1c[nH]c2ccccc12`: the Activity lay in the range of 41 to 62 µM in data set [2], 11 to 48 µM in data set [3] and 11 to 90 µM in data set [4]. The inhibition in data set [1] was 73%.

For the molecule `FC(F)(F)c1ccnc(-n2cc(-c3cnc4ccccc4n3)cn2)n1`, the inhibition in data set [1] came to 36%.

Regarding `O=C(c1ccc2[nH]ccc2c1)N1CCc2ccccc2C1`, the inhibition in data set [1] turned out to be 86%.

With `FC(F)(F)c1ccnc(-n2cc(-c3cnccn3)cn2)n1`, the inhibition in data set [1] was determined as 9%.

On to `FC(F)(F)c1ccnc(-n2cc(-c3nc4ccccc4[nH]3)cn2)n1`, for which the inhibition in data set [1] was 36%.

In the case of `CC(C)C1C2CCC(NC(=O)CCc3c[nH]c4ccccc34)C1C2` (stereo unspecified), the inhibition in data set [1] stood at 28%.

In the case of `O=C(c1ccc2[nH]ccc2c1)N1CCN(Cc2ccccc2)CC1`, in data set [1], the inhibition was found to be 62%.

As to `O=[N+]([O-])c1cc(Cl)ccc1-c1cnn(-c2nccc(C(F)(F)F)n2)c1`, in data set [1], the inhibition stood at 82%.

With `COc1cc(CCNC(=O)CCCc2c[nH]c3ccccc23)cc(OC)c1`, in data set [1], the inhibition was 21%.

As to `Cc1c(C)c(C)c(C(=O)C2CCN(C(=O)c3ccc4[nH]ccc4c3)CC2)c(C)c1C`, in data set [1], the inhibition is 78%.

In the case of `O=C(CCCc1c[nH]c2ccccc12)Nc1ccc(N2CCCC2)cc1`, the inhibition in data set [1] came out at 28%.

In the case of `CCCC(=O)C1(c2ccccc2)CCN(C(=O)c2ccc3[nH]ccc3c2)CC1`, the figures for the Activity in data set [2], in data set [3] and in data set [4] were 23 to 48 µM, 33 to 50 µM and 46 to 50 µM, respectively.

On to `CC(C)C1C2CCC(NC(=O)CCCc3c[nH]c4ccccc34)C1C2` (stereo unspecified), for which the inhibition in data set [1] worked out at 34%.

As for `COc1ccc([N+](=O)[O-])c(-c2cnn(-c3nccc(C(F)(F)F)n3)c2)c1`, the inhibition in data set [1] was found to be 17%.

Turning to `COc1ccccc1N1CCN(C(=O)c2ccc3[nH]ccc3c2)CC1`, in data set [1], the inhibition came to 78%.

For `COc1cc2c(cc1OC)CN(C(=O)c1ccc3[nH]ccc3c1)CC2`, in data set [1], the inhibition was 86%.

In the case of `O=C(c1ccc2[nH]ccc2c1)N1CCN(c2ccccc2)CC1`, in data set [1], the inhibition was 73%.

As to `O=C(c1ccc2[nH]ccc2c1)N1CCN(c2ccc(F)cc2)CC1`, in data set [1], the inhibition stood at 53%.

Regarding `FC(F)(F)c1ccnc(-n2cc(-c3ccc(Cl)cc3)cn2)n1`, the inhibition in data set [1] is 8%.

For the molecule `O=[N+]([O-])c1ccccc1-c1cnn(-c2nccc(C(F)(F)F)n2)c1`, in data set [1], the inhibition amounted to 14%.

Consider `FC(F)(F)c1ccnc(-n2cc(-c3cccnc3)cn2)n1`, for which, in data set [1], the inhibition worked out at 36%.

For `CN(Cc1ccccc1)C(=O)c1ccc(-c2ccccc2)cc1`, the inhibition in data set [1] worked out at 44%.

Regarding `O=C(Cc1ccccc1F)NCCC1=CCCCC1`, the inhibition in data set [1] was determined as 56%.

On to `O=C(c1cccnc1)c1ccc2[nH]ccc2c1`, for which the inhibition in data set [1] worked out at 36%.

For `CC(C)=CCC/C(C)=C/CNC(=O)CCCc1c[nH]c2ccccc12`, the inhibition in data set [1] is 51%.

For the molecule `O=C(c1ccc(F)cc1)C1CCN(C(=O)c2ccc3[nH]ccc3c2)CC1`, in data set [1], the inhibition was determined as 84%.

As to `CN(Cc1ccco1)C(=O)c1ccc(-c2ccccc2)cc1`, the inhibition in data set [1] worked out at 29%.
